These results are taken from article PMC10344949, “Arachidonic acid reverses cholesterol and zinc inhibition of human voltage-gated proton channels” (The Journal of Biological Chemistry, 2023).

The assay has as its target T1, hHv1 (human voltage-gated proton channel) (Homo sapiens, UniProt Q96D96).
T1 construct: gene HVCN1; no truncation stated
T1 sequence (Q96D96 1-273): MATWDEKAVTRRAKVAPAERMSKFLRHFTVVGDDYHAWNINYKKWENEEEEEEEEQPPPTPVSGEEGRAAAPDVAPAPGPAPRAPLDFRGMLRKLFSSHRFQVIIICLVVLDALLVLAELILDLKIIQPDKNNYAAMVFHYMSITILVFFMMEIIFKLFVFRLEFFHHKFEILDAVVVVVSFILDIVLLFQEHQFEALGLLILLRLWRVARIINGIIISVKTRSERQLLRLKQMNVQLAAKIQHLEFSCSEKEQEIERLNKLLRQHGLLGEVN
In words: liposome proton flux assay (ACMA quenching), Hill fit. The assay is classed as biochemical. As to conditions: read-out: half activation concentration (Kd).

In the case of `CCCCC/C=C\C/C=C\C/C=C\C/C=C\CCCC(=O)O` [arachidonic acid], the EC50 turned out to be 7.2 µM.
